From US10254290B2, “Systems and methods for identifying protein stabilizers” (The University of Kansas, priority 2012, dated 2019)

Tests used:
[1] = biological target: CFTR-NBD1 (Homo sapiens, UniProt P13569); test: GroEL binding to CFTR-NBD1 bound directly to the substrate; conditions: CFTR-NBD1 introduced to GTP prior to GroEL
Description: Additionally, the CFTR nucleotide binding domain (e.g., CFTR-NBD1) may be bound directly to the substrate, which is then introduced to a GroEL buffer. […] When the CFTR-NBD1 is not introduced to GTP prior to being introduced to GroEL, there is a much higher single. Other substances besides GTP can also be screen to identify inhibitors of forming the CFTR-NBD1/GroEL complex.

[2] = biological target: CFTR (Homo sapiens, UniProt P13569); test: BLI chaperonin (GroEL) binding to antibody-captured CFTR, with or without stabilizer (scheme of FIG. 9); conditions: compared with chaperonin alone and buffer signal
CFTR, sequence (P13569 whole entry, species assumed): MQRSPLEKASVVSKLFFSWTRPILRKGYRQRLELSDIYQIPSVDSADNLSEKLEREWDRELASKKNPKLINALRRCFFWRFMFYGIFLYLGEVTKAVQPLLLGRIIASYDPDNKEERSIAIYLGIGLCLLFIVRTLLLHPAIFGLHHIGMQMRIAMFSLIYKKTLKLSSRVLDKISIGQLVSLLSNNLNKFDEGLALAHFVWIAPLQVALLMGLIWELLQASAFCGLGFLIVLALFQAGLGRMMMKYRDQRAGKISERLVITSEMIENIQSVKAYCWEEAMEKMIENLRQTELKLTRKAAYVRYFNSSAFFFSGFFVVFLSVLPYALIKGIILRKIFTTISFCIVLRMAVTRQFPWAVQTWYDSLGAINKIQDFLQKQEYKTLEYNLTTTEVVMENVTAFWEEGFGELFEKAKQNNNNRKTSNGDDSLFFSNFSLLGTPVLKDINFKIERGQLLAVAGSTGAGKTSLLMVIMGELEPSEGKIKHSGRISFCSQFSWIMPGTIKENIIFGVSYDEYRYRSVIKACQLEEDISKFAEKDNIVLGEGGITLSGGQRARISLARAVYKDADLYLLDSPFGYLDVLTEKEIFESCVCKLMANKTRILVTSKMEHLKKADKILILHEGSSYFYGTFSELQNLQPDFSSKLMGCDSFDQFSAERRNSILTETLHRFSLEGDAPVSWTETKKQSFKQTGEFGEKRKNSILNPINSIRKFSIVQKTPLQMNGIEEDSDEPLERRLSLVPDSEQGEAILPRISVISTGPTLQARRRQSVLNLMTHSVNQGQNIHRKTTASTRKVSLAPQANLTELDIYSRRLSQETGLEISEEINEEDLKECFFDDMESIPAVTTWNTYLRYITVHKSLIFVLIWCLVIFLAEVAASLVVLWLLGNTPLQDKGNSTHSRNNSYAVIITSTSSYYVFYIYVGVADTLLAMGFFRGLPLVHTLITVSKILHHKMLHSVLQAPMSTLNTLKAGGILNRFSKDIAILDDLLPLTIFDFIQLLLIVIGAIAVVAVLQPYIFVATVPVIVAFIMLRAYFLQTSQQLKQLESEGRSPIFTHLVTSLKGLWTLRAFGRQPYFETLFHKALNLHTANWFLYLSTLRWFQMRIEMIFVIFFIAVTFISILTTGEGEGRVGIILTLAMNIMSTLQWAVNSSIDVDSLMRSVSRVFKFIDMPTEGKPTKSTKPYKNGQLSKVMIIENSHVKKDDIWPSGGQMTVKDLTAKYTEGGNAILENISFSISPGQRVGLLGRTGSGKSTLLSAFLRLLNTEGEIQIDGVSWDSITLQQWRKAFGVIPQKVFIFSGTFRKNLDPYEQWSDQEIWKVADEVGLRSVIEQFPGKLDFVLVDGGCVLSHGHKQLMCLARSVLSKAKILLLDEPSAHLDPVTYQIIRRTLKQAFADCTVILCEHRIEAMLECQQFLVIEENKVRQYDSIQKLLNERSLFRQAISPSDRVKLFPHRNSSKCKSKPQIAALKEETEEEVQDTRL
Description: In one embodiment, a linker antibody (e.g., anti-mouse antibody) can be attached to the substrate, which is then introduced to a capture antibody (e.g., CFTR antibody), and which is then introduced to a target protein (e.g., cystic fibrosis transmembrane conductance regulator, CFTR). In some instances the capture antibody can be linked directly to the substrate or through a suitable linker. However, the linker antibody can position the capture antibody a suitable distance from the substrate by antibody extension. If no stabilizer is present, a chaperonin (e.g., GroEL) can bind with the target protein to provide a large signal.
As shown, a substrate 202 has an anti-mouse antibody 906 bound thereto. Then, a CFTR antibody 908 is associated with the anti-mouse antibody 906. CFTR 910 is then introduce to and bound with the CFTR antibody 908 before a chaperonin 914 (e.g., GroEL) is introduced to the CFTR/CFTR antibody complex. […] When there is no stabilizer C, the chaperonin 514 binds with the CFTR/CFTR antibody complex to form complex 920 and to produce a large signal. When the stabilizer C is present, there is a decreased binding signal to indicate that the chaperonin cannot bind with the CFTR/CFTR antibody complex. […]

[3] = biological target: GroEL chaperonin (Escherichia coli, UniProt P0A6F5); test: Binding of the substance to the chaperonin itself
GroEL chaperonin, sequence (P0A6F5 2-548): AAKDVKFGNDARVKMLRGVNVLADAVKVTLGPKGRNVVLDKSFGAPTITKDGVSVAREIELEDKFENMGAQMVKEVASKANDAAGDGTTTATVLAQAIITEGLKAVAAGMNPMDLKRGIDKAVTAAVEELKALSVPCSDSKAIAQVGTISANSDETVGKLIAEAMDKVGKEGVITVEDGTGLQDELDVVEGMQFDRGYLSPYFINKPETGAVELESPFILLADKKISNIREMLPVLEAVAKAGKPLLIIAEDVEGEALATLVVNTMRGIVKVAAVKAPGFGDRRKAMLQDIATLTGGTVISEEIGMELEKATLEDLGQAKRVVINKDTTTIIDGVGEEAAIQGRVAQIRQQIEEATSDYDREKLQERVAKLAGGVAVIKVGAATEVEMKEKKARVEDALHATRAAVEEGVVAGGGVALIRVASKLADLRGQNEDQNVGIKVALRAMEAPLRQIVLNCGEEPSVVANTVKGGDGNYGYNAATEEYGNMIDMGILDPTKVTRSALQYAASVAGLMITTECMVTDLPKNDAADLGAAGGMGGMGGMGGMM

[4] = biological target: T1, dihydrofolate reductase (DHFR) (Homo sapiens, UniProt P00374); test: Control experiment: biotinylated GroEL chaperonin on a BLI substrate dipped into a DHFR solution; format: binding
T1 sequence (P00374 1-187): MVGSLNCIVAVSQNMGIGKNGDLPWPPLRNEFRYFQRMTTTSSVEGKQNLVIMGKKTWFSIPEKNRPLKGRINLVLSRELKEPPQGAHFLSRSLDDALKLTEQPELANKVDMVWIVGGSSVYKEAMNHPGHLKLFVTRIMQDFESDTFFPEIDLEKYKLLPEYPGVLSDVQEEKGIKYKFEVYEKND
Description: The chaperonin can bind particular target proteins as they transiently expose hydrophobic surfaces from their partially folded forms. The partitioning kinetics can be followed using the BLI high throughput system (Fortebio Octet™) or SPR or other suitable technology. With BLI as an example, the chaperonin can be attached to the BLI tip substrate to dip into a target protein solution. Alternatively, the capture protein and/or target protein can be attached to the BLI tip substrate to dip into a chaperonin solution. The chaperonin will bind with transitioned target proteins (e.g., second conformation), but has no or low binding with folded target proteins (e.g., first conformation). […] Potential protein stabilizers can be screened to see which ones inhibit the chaperonin from binding to the target protein by the stabilizer retaining the protein in the first conformation. In the presence of a potential protein stabilizer, the partitioning kinetic amplitudes show significant declines (e.g., inhibition of partitioning) or even abolish global partitioning, which is scored as a potential lead compound. Once identified, potential protein stabilizer compounds can be further tested with target proteins in secondary screens. […]

CFTR-NBD1, sequence (P13569 423-646 limits assumed): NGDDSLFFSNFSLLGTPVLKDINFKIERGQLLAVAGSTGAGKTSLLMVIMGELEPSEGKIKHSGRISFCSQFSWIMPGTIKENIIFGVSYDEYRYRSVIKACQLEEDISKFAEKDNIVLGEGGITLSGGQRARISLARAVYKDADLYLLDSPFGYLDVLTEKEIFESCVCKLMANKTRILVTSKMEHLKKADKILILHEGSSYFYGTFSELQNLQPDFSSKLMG

Compound	signal of GroEL binding to CFTR-NBD1 [1]	chaperonin binding signal (stabilization of CFTR) [2]	binding to the GroEL chaperonin [3]	signal of GroEL-DHFR interaction ([4]; BLI, NADPH e.g. 10 mM)	signal of GroEL-DHFR interaction, combination ([4]; combination of GroEL and DHFR and 10 mM NADPH)
Nc1nc2c(ncn2[C@@H]2O[C@H](COP(=O)(O)OP(=O)(O)OP(=O)(O)O)[C@@H](O)[C@H]2O)c(=O)[nH]1 [GTP, guanosine triphosphate]	no signal or a low single	decreased the chaperonin binding and decreased the signal	does not bind	–	–
NC(=O)C1=CN([C@@H]2O[C@H](COP(=O)(O)OP(=O)(O)OC[C@H]3O[C@@H](n4cnc5c(N)ncnc54)[C@H](OP(=O)(O)O)[C@@H]3O)[C@@H](O)[C@H]2O)C=CC1 [NADPH]	–	–	–	decrease the signal	further reduce the signal
